From patent publication US20150087045A1, “CRYSTAL STRUCTURE OF HCV […] AND METHODS OF USE” (GILEAD P[…], priority 2012, published 2015)
Values joined by “and” are separate entries in the source; they are usually repeats but may differ in a detail not shown here. Identical values can stand only once.

Experiments:
[1] = Thermofluor analysis: melting temperature of polymerase constructs; format: physicochemical; details: polymerase itself
Protocol: Thermofluor analysis of HCV polymerases 1bWT, 1bΔ8, 2aWT, and 2aΔ8 was performed as previously described (36, 37) in the absence and presence of symmetrical primer-template pairs or fused hairpin primer-template RNA as described in Example 2.

[2] = system: genotype 1b (−) IRES RNA template; assay: De novo RNA synthesis activity of HCV NS5B polymerase constructs; format: biochemical, hepatitis C virus; details: 2a Δ8 with Gly-Gly linker compared to wild-type 2a
Protocol: HCV activity assays were performed in a 200 μL mixture containing 1 μM of the four natural ribonucleotides, [α-^32P]UTP, 20 ng/μL of genotype 1b (−) IRES RNA template, 1 unit/μL of SUPERase.In (Ambion, Austin, Tex.), 40 ng/μL of NS5B, 5 mM MgCl2, and 2 mM DTT in 50 mM HEPES buffer (pH 7.5). The reaction was incubated at 27° C. and 20 μL aliquots were taken at the desired time points and quenched by mixing in 80 μL of stop solution (12.5 mM EDTA, 2.25 M NaCl, and 225 mM sodium citrate).

[3] = target: T1, HCV NS5B polymerase 1b Δ8 (Hepatitis C virus genotype 1b, UniProt P26663, DEL2863-2870/E2505Q/E2506Q/K2533R/L2466Q/R2963Q/S2872G/Y2871G); assay: Inhibition assay (chain termination) with construct 1b Δ8; format: biochemical, hepatitis C virus genotype 1b BK isolate; details: for IC50: one value or range given for both 1b WT and 1b Δ8
T1 construct: 1bΔ8; made in house; host or cells: E. coli Rosetta DE3

[4] = target: T2, HCV NS5B polymerase 1b WT (Hepatitis C virus genotype 1b, UniProt P26663, E2505Q/E2506Q/K2533R/L2466Q/R2963Q); assay: Inhibition assay (chain termination) with construct 1b WT; format: biochemical, hepatitis C virus genotype 1b BK isolate; details: one value or range given for both 1b WT and 1b Δ8
T2 construct: 1b WT; made in house; host or cells: E. coli Rosetta DE3
Protocol: For constructs 1bWT and 1bΔ8, inhibition assays were performed in a 120 μL mixture containing 5 μM of the four natural ribonucleotides, [α-^32P]UTP, 20 ng/μL of genotype 1b (−) IRES RNA template, 1 unit/μL of SUPERase.In (Ambion, Austin, Tex.), 40 ng/μL of NS5B, 5 mM MgCl2, and 2 mM DTT in 50 mM HEPES buffer (pH 7.5). The reaction was incubated at 27° C. and a 20 μL aliquot was taken at 0, 30, 60, 90, and 120 minute time points and quenched by mixing with 80 μL of stop solution (12.5 mM EDTA, 2.25 M NaCl, and 225 mM sodium citrate). The radioactive RNA products were separated from unreacted substrates using a Hybond N+ membrane (GE Healthcare) as described previously (FIG. 2). The products were visualized and quantified using a phosphorimager. The reaction rates and IC 50 values were calculated using GraphFit.

HCV polymerase 1b S282T [5] = target: T3, HCV polymerase 1b S282T (Hepatitis C virus genotype 1b, UniProt P26663, E2505Q/E2506Q/K2533R/L2466Q/R2963Q/S2701T); assay: Inhibition assay (chain termination) with construct 1b S282T; format: biochemical, hepatitis C virus genotype 1b BK isolate
T3 construct: 1b S282T; made in house; host or cells: E. coli Rosetta DE3

HCV polymerase 1b S282T [6] = assay: as above; format: biochemical, hepatitis C virus genotype 1b BK isolate; details: upon introduction of S282T into 1b WT
[7] = system: HCV polymerase 1b Δ8 S282T; assay: Inhibition assay (chain termination) with construct 1b Δ8 S282T; format: biochemical, hepatitis C virus genotype 1b BK isolate; details: upon introduction of S282T into 1b Δ8
[8] = target: T4, HCV polymerase 1b Δ8 S282T (Hepatitis C virus genotype 1b, UniProt P26663, DEL2863-2870/E2505Q/E2506Q/K2533R/L2466Q/R2963Q/S2701T/S2872G/Y2871G); assay: as above; format: biochemical, hepatitis C virus genotype 1b BK isolate
T4 construct: 1bΔ8 S282T; made in house; host or cells: E. coli Rosetta DE3

[9] = target: T5, HCV NS5B polymerase 2a Δ8 (Hepatitis C virus genotype 2a, UniProt Q99IB8, DEL2886-2893/E2528Q/E2529Q/S2895G/Y2894G); assay: Inhibition assay (chain termination) with construct 2a Δ8; format: biochemical, hepatitis C virus genotype 2a JFH1 isolate; details: 15 minutes incubation, 27° C.
T5 construct: 2aΔ8; made in house; host or cells: E. coli Rosetta DE3
Protocol: (§1) For constructs 2aWT and 2aΔ8, inhibition assays were performed in a 20 μL mixture containing varying concentrations of PSI-352666 or 2′-C-MeGTP, 5 μM of the four natural ribonucleotides, [α-^32P]UTP, 20 ng/μL of genotype 1b (−) IRES RNA template, 1 unit/μL of SUPERase.In (Ambion, Austin, Tex.), 40 ng/μL of NS5B, 5 mM MgCl2, and 2 mM DTT in 50 mM HEPES buffer (pH 7.5).
(§2) The reaction was incubated at 27° C. and quenched by adding 80 μL of stop solution after 60 minutes incubation with 2aWT or 15 minutes incubation with 2aΔ8. The radioactive RNA products were separated from unreacted substrates using a Hybond N+ membrane (GE Healthcare) as described previously^28. The products were visualized and quantified using a phosphorimager. The reaction rates and the IC50 values were calculated using GraphFit (Erithacus Software, Horley, Surrey, UK).

[10] = target: T6, HCV NS5B polymerase 2a WT (Hepatitis C virus genotype 2a, UniProt Q99IB8, E2528Q/E2529Q); assay: Inhibition assay (chain termination) with construct 2a WT; format: biochemical, hepatitis C virus genotype 2a JFH1 isolate; details: 60 minutes incubation, 27° C.
T6 construct: 2a WT; made in house; host or cells: E. coli Rosetta DE3
Protocol: as §1, §2

Molecule	melting temperature (Tm) [1] [°C]	de novo RNA synthesis activity compared to 2a WT [2] [fold]	IC50 [3] [µM]	IC50 [4] [µM]	IC50 (HCV polymerase 1b S282T [5]) [µM]	increase in IC50 (HCV polymerase 1b S282T [6]) [fold]	increase in IC50 [7] [fold]	IC50 [8] [µM]	chain termination: elongation of the terminated product (*GGCX) ([3]; in the presence of the next correct incoming nucleotide (ATP), 0-60 min)	IC50 [9]	IC50 [10] [µM]
2a WT: HCV polymerase genotype 2a JFH-1 construct, SEQ ID NO:3, C-terminal 21 amino acids replaced by hexahistidine tag, E86Q and E87Q	~41	–	–	–	–	–	–	–	–	–	–
2a Δ8: 2a WT with the β-hairpin replaced by a Gly-Gly linker, SEQ ID NO:8	~35	> 100	–	–	–	–	–	–	–	–	–
C[C@@]1(O)[C@H](O)[C@@H](COP(=O)(O)OP(=O)(O)OP(=O)(O)O)O[C@H]1n1cnc2c(=O)[nH]c(N)nc21 [2′-C-MeGTP]	–	–	7 to 13	7 to 13	> 100	> 10	> 10	> 100	–	–	–
C[C@@]1(F)[C@H](O)[C@@H](COP(=O)(O)OP(=O)(O)OP(=O)(O)O)O[C@H]1n1cnc2c(=O)[nH]c(N)nc21 [PSI-352666]	–	–	4	4	9 to 14	~2.5	~2.5	9 to 14	not further elongated	6 µM and 6.41 µM	6.05 ± 0.82
